These results are taken from US10633366B2, “Antibacterial compounds” (AZIENDE CHIMICHE RIUNITE ANGELINI FRANCESCO A.C.R.A.F. …, priority 2016, dated 2020).

What all share (assay): biochemical
For assay [1], the target named is S. aureus Topoisomerase IV (Staphylococcus aureus, UniProt P0C1S7+P0C1U9). The settings on record: for inhibition at 50 µM: read-out: % inhibition Topo IV.
For the next assay, the target named is E. coli Topoisomerase IV (Escherichia coli, UniProt P0AFI2+P20083). As to conditions: for IC50: IC50 Topo IV; for inhibition at 50 µM: read-out: % inhibition Topo IV.
A further assay deals with S. aureus DNA gyrase (Staphylococcus aureus, UniProt P0A0K8+P20831). As to conditions: for IC50: IC50 DNA gyrase; for inhibition at 50 µM: read-out: % inhibition DNA gyrase.
For the next assay, the target named is E. coli DNA gyrase (Escherichia coli, UniProt P0AES4+P0AES6). As to conditions: for IC50: IC50 DNA gyrase; for inhibition at 50 µM: read-out: % inhibition DNA gyrase.
The mark [2] stands for this setting: S. aureus, compound conc. 50 μM, percent of inhibition versus positive control, n/a = not active.

Like-named read-outs stand apart in the source and are kept apart here. Bounds are passed on as bounds.

Chain of E. coli DNA gyrase (P0AES4 whole entry, one chain of several): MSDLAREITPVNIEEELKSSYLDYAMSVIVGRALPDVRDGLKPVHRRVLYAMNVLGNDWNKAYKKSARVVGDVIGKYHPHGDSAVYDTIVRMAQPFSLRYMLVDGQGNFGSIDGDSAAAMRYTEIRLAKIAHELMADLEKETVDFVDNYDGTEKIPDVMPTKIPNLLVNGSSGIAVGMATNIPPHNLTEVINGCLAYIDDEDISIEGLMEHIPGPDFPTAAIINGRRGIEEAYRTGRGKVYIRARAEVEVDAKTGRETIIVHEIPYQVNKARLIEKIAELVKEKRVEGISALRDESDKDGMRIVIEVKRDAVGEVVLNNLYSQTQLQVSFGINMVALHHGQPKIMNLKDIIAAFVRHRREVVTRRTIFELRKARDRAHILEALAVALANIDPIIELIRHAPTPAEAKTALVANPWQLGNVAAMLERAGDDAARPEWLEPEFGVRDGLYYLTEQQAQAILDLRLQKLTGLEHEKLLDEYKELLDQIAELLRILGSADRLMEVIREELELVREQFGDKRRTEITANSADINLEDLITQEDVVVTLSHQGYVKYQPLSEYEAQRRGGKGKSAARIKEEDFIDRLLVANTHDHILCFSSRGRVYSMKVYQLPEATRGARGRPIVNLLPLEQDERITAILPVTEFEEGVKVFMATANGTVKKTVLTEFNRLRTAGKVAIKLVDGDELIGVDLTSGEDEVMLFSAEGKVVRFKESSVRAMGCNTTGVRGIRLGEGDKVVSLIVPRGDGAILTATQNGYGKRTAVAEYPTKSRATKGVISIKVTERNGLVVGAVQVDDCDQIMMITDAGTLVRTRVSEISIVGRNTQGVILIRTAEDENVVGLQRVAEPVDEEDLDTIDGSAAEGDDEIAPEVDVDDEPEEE
Chain of E. coli Topoisomerase IV (P0AFI2 whole entry): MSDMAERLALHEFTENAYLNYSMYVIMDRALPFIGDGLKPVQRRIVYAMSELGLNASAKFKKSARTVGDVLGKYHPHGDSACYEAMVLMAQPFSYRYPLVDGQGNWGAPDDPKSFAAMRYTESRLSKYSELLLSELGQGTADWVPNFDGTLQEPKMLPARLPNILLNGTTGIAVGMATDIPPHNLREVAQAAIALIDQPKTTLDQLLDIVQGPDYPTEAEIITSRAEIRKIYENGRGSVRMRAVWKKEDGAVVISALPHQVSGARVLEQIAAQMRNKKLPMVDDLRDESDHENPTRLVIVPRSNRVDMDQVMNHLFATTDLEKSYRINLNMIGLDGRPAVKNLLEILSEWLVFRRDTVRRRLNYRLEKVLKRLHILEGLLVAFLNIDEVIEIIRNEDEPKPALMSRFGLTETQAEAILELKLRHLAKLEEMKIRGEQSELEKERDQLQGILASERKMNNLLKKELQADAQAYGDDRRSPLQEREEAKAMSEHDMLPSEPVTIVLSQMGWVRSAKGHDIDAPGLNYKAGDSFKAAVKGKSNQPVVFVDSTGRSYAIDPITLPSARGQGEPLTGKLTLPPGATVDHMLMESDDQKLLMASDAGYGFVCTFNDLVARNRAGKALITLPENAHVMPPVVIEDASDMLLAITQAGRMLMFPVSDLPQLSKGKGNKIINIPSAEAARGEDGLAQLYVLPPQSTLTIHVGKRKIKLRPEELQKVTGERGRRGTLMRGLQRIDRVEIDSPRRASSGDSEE
Chain of E. coli Topoisomerase IV (P20083 whole entry): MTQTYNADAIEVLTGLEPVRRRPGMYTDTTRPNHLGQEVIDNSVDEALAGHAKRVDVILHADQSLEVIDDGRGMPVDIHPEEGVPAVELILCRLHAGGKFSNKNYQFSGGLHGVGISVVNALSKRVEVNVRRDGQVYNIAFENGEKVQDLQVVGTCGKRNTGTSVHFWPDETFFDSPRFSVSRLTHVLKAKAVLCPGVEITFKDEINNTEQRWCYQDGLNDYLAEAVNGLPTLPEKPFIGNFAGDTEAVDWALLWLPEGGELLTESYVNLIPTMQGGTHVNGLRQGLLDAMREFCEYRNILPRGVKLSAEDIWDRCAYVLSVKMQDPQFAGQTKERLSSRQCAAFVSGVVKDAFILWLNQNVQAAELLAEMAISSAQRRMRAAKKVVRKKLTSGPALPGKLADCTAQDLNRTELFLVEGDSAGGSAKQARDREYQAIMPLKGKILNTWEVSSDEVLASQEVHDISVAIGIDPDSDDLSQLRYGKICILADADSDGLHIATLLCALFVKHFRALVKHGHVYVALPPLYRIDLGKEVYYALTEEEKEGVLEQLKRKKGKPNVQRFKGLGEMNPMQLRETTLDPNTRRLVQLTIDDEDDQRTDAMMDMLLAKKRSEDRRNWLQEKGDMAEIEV
Chain of S. aureus Topoisomerase IV (P0C1U9 whole entry): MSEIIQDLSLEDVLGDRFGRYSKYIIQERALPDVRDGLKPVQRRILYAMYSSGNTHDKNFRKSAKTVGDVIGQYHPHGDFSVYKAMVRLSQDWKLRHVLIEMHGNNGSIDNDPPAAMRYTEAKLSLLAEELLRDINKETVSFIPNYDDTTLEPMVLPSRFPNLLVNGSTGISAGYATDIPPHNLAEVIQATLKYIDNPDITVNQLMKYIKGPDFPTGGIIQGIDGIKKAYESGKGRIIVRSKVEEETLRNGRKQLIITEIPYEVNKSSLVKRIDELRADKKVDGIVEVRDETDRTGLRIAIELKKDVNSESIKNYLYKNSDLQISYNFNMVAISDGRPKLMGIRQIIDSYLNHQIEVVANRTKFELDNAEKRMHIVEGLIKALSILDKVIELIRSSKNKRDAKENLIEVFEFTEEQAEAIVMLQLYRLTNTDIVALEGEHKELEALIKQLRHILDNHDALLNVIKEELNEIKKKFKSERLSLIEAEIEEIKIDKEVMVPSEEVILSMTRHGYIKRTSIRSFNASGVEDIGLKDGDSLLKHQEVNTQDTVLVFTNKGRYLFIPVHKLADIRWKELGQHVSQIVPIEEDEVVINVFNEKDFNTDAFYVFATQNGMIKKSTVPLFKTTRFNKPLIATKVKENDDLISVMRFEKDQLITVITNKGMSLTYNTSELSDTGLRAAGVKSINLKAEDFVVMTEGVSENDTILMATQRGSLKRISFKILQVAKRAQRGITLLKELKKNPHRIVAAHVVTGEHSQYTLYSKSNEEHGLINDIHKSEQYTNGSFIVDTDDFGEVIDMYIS
Chain of S. aureus Topoisomerase IV (P0C1S7 whole entry): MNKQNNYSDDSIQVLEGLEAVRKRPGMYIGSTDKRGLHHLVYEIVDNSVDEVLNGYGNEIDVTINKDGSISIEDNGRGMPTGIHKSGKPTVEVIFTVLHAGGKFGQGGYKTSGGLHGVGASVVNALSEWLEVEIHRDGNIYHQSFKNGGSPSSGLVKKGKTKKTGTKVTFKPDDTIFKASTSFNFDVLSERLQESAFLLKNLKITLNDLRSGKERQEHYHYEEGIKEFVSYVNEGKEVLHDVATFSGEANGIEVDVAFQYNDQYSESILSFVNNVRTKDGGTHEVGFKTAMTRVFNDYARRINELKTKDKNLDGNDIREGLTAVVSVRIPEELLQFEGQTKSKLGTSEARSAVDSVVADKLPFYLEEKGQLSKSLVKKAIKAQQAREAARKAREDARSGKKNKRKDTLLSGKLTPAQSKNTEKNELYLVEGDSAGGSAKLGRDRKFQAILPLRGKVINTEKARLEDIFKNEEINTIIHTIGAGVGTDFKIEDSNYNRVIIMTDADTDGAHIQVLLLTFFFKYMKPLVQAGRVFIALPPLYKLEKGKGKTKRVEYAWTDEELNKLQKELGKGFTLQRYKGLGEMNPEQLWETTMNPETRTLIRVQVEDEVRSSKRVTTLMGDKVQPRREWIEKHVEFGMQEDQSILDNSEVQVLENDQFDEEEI

As for `O=c1oc2ccccc2c2[nH]c(CNCC3CCN(c4nccc5ccc(F)cc45)C3)cc12` (single isomer, unassigned) [Compound 181, 2-[({[1-(7-fluoroisoquinolin-1-yl)pyrrolidin-3-yl]methyl}amino)methyl][1]benzopyrano[4,3-b]pyrrol-4(1H)-one], the half-maximal inhibitory concentration (IC50) in assay [1] (IC50 Topo IV) worked out at 0.36 µM; against E. coli Topoisomerase IV, 3.67 µM; at S. aureus DNA gyrase, 0.73 µM; against E. coli DNA gyrase, 0.44 µM. The entries for the “% inhibition Topo IV” value (in assay [1] (setting [2]); on E. coli Topoisomerase IV) were 50% and 91%, respectively. Further, the “% inhibition DNA gyrase” value is given as 92% at S. aureus DNA gyrase and 53% on E. coli DNA gyrase.

`COc1ccc2ncc(=O)n([C@H]3CC[C@H](NCc4cc5c(=O)oc6ccc(F)cc6c5[nH]4)CC3)c2n1` [Compound 201, 8-fluoro-2-({[trans-4-(6-methoxy-3-oxopyrido[2,3-b]pyrazin-4(3H)-yl)cyclohexyl]amino}methyl)[1]benzopyrano[4,3-b]pyrrol-4(1H)-one]: the half-maximal inhibitory concentration (IC50) in assay [1] (IC50 Topo IV) was under 0.1 µM; at E. coli Topoisomerase IV it was under 0.1 µM; on S. aureus DNA gyrase, 0.19 µM; at E. coli DNA gyrase, under 0.1 µM. Also, the inhibition at 50 µM (in assay [1]; at E. coli Topoisomerase IV; at S. aureus DNA gyrase; at E. coli DNA gyrase) was 100% each time.

`COc1cnc2c(c1)N([C@H]1CC[C@H](NCc3cc4c(=O)oc5ccc(F)cc5c4[nH]3)CC1)C(=O)CO2` [Compound 302, 8-fluoro-2-({[trans-4-(7-methoxy-2-oxo-2,3-dihydro-1H-pyrido[2,3-b][1,4]oxazin-1-yl)cyclohexyl]amino}methyl)[1]benzopyrano[4,3-b]pyrrol-4(1H)-one]: the IC50 in assay [1] (S. aureus, Table 4, eight half-log concentrations ranging from 0.1 to 300 μM, read-out: IC50 Topo IV) is 3.26 µM; at E. coli Topoisomerase IV, 0.12 µM; at S. aureus DNA gyrase, 0.58 µM; on E. coli DNA gyrase, 0.59 µM.

In the case of `COc1ccc2ccc(=O)n(C3CCN(CCc4cc5c(=O)oc6ccc(F)cc6c5[nH]4)CC3)c2n1` [Compound 202, 8-fluoro-2-{2-[4-(7-methoxy-2-oxo-1,8-naphthyridin-1(2H)-yl)piperidin-1-yl]ethyl}[1]benzopyrano[4,3-b]pyrrol-4(1H)-one], the inhibition at 50 µM (in assay [1]; on E. coli Topoisomerase IV; at S. aureus DNA gyrase; at E. coli DNA gyrase) was 100% throughout.

In the case of `O=C1COc2ncc(F)cc2N1[C@H]1CC[C@H](N(CCO)Cc2cc3c(=O)oc4ccc(F)cc4c3[nH]2)CC1` [Compound 221, 8-fluoro-2-({[trans-4-(7-fluoro-2-oxo-2,3-dihydro-1H-pyrido[2,3-b][1,4]oxazin-1-yl)cyclohexyl](2-hydroxyethyl)amino}methyl)[1]benzopyrano[4,3-b]pyrrol-4(1H)-one], the IC50 in assay [1] (IC50 Topo IV) turned out to be 2.63 µM; on E. coli Topoisomerase IV, 0.67 µM; at S. aureus DNA gyrase, 2.76 µM; at E. coli DNA gyrase, 0.92 µM. In addition, the inhibition at 50 µM in assay [1] (setting [2]) turned out to be 100%; on E. coli Topoisomerase IV, 50%; at S. aureus DNA gyrase, 100%; at E. coli DNA gyrase, 81%.

Turning to `COc1ccc2ccc(=O)n([C@H]3CC[C@H](NCc4cc5c(=O)oc6ccc(F)cc6c5[nH]4)CC3)c2c1` [Compound 219, 8-fluoro-2-({[trans-4-(7-methoxy-2-oxoquinolin-1(2H)-yl)cyclohexyl]amino}methyl)[1]benzopyrano[4,3-b]pyrrol-4(1H)-one], the IC50 was 0.65 µM in assay [1] (IC50 Topo IV), 0.22 µM against E. coli Topoisomerase IV, 0.22 µM against S. aureus DNA gyrase and 0.22 µM on E. coli DNA gyrase. For the same compound, the inhibition at 50 µM (in assay [1] (setting [2]); at E. coli Topoisomerase IV; on S. aureus DNA gyrase; at E. coli DNA gyrase) was 100% in each case.

As for `O=C1COc2ncc(F)cc2N1C1CCN(CC(O)CNc2cc(=O)oc3ccc(F)cc23)CC1` (stereo not shown) [Compound 303, 7-fluoro-1-(1-{3-[(6-fluoro-2-oxo-2H-1-benzopyran-4-yl)amino]-2-hydroxypropyl}piperidin-4-yl)-1H-pyrido[2,3-b][1,4]oxazin-2(3H)-one], the half-inhibitory concentration (IC50) in assay [1] (IC50 Topo IV) is over 100 µM; at E. coli Topoisomerase IV, 0.62 µM; at S. aureus DNA gyrase, 9.92 µM; against E. coli DNA gyrase it was 2.67 µM.

Take `COc1cnc2ccc(=O)n([C@H]3CC[C@@H](NCc4cc5c(=O)oc6ccc(F)cc6c5[nH]4)CC3)c2c1` [Compound 205, 8-fluoro-2-({[cis-4-(7-methoxy-2-oxo-1,5-naphthyridin-1(2H)-yl)cyclohexyl]amino}methyl)[1]benzopyrano[4,3-b]pyrrol-4(1H)-one]: the half-inhibitory concentration (IC50) in assay [1] (IC50 Topo IV) is 0.1 µM; against E. coli Topoisomerase IV, 0.31 µM; at S. aureus DNA gyrase, 0.17 µM; against E. coli DNA gyrase, 0.1 µM. In addition, the inhibition at 50 µM (in assay [1] (setting [2]); at E. coli Topoisomerase IV; on S. aureus DNA gyrase; on E. coli DNA gyrase) was 100% in each case.

`O=c1oc2ccccc2c2[nH]c(CNCC3CCN(c4nccc5ccc(F)cc45)C3)cc12` (single isomer, unassigned) [Compound 180, 2-[({[1-(7-fluoroisoquinolin-1-yl)pyrrolidin-3-yl]methyl}amino)methyl][1]benzopyrano[4,3-b]pyrrol-4(1H)-one]: the half-maximal inhibitory concentration (IC50) in assay [1] (IC50 Topo IV) was 0.11 µM; at E. coli Topoisomerase IV, 3.78 µM; at S. aureus DNA gyrase, 1.7 µM; at E. coli DNA gyrase, 0.48 µM. For the same compound, the values for the inhibition at 50 µM (in assay [1] (setting [2]); on S. aureus DNA gyrase; on E. coli DNA gyrase) were 50%, 90% and 58%, respectively. Besides, the “% inhibition Topo IV” value on E. coli Topoisomerase IV turned out to be 57%.

In the case of `O=c1oc2ccccc2c2[nH]c(CNCC3CN(c4nccc5ccc(F)cc45)CCO3)cc12` (single isomer, unassigned) [Compound 182, 2-[({[4-(7-fluoroisoquinolin-1-yl)morpholin-2-yl]methyl}amino)methyl][1]benzopyrano[4,3-b]pyrrol-4(1H)-one], the IC50 was found to be 0.74 µM in assay [1] (IC50 Topo IV), 3.21 µM on E. coli Topoisomerase IV, 0.64 µM at S. aureus DNA gyrase and 0.74 µM against E. coli DNA gyrase. Besides, the “% inhibition Topo IV” value was determined as 50a % in assay [1] (setting [2]) and 52% at E. coli Topoisomerase IV. The inhibition at 50 µM at S. aureus DNA gyrase turned out to be 92%; at E. coli DNA gyrase, 61%.

Consider `O=C1COc2ncc(F)cc2N1[C@H]1CC[C@H](NCc2cc3ncc4c(c3[nH]2)OCCO4)CC1` [Compound 314, 1-[trans-4-{[(2,3-dihydro-9H-[1,4]dioxino[2,3-d]pyrrolo[3,2-b]pyridin-8-yl)methyl]amino}cyclohexyl]-7-fluoro-1H-pyrido [2,3-b][1,4]oxazin-2(3H)-one], for which the 50% inhibitory concentration (IC50) was over 100 µM in assay [1] (IC50 Topo IV), 1.14 µM against E. coli Topoisomerase IV, 7.1 µM against S. aureus DNA gyrase and 0.85 µM at E. coli DNA gyrase.

As to `O=c1oc2ccc(F)cc2c2[nH]c(CN[C@H]3CC[C@H](n4c(=O)ccc5ccc(F)cc54)CC3)cc12` [Compound 216, 8-fluoro-2-({[trans-4-(7-fluoro-2-oxoquinolin-1(2H)-yl)cyclohexyl]amino}methyl)[1]benzopyrano[4,3-b]pyrrol-4(1H)-one], the concentration for half-maximal inhibition (IC50) is 0.29 µM in assay [1] (IC50 Topo IV), 0.25 µM on E. coli Topoisomerase IV, 0.31 µM at S. aureus DNA gyrase and 0.13 µM on E. coli DNA gyrase. Further, the inhibition at 50 µM (in assay [1] (setting [2]); on E. coli Topoisomerase IV; at S. aureus DNA gyrase; on E. coli DNA gyrase) was 100% throughout.

On to `COc1ccc2ncc(=O)n([C@H]3CC[C@H](NCc4cc5c(=O)oc6ccc(F)cc6c5[nH]4)CC3)c2c1` [Compound 208, 8-fluoro-2-({[trans-4-(7-methoxy-2-oxoquinoxalin-1(2H)-yl)cyclohexyl]amino}methyl)[1]benzopyrano[4,3-b]pyrrol-4(1H)-one], for which the 50% inhibitory concentration (IC50) in assay [1] (IC50 Topo IV) was 0.13 µM; against E. coli Topoisomerase IV, 0.27 µM; against S. aureus DNA gyrase, 0.11 µM; on E. coli DNA gyrase, 0.08 µM. The inhibition at 50 µM (in assay [1] (setting [2]); on E. coli Topoisomerase IV; on S. aureus DNA gyrase; at E. coli DNA gyrase) was 100% in each case.

Turning to `O=c1oc2ccc(F)cc2c2[nH]c(CN[C@H]3CC[C@H](n4c(=O)cnc5ccc(F)cc54)CC3)cc12` [Compound 211, 8-fluoro-2-({[trans-4-(7-fluoro-2-oxoquinoxalin-1(2H)-yl)cyclohexyl]amino}methyl)[1]benzopyrano[4,3-b]pyrrol-4(1H)-one], the concentration for half-maximal inhibition (IC50) (in assay [1] (IC50 Topo IV); at E. coli Topoisomerase IV; on S. aureus DNA gyrase; at E. coli DNA gyrase) was under 0.1 µM throughout. For the same compound, the inhibition at 50 µM (in assay [1] (setting [2]); on E. coli Topoisomerase IV; at S. aureus DNA gyrase; on E. coli DNA gyrase) was 100% throughout.

For `N#Cc1cnc2c(c1)N([C@H]1CC[C@@H](NCc3cc4c(=O)oc5ccc(F)cc5c4[nH]3)CC1)C(=O)CO2` [Compound 215, 1-(cis-4-{[(8-fluoro-4-oxo-1,4-dihydro[1]benzopyrano[4,3-b]pyrrol-2-yl)methyl]amino}cyclohexyl)-2-oxo-2,3-dihydro-1H-pyrido[2,3-b][1,4]oxazine-7-carbonitrile], the inhibition at 50 µM at S. aureus DNA gyrase was found to be 96%; at E. coli DNA gyrase, 69%.

As to `Fc1ccc2ccnc(N3CCC(NCc4c[nH]c(-c5ccccn5)n4)CC3)c2c1` [Compound 160, 1-(7-fluoroisoquinolin-1-yl)-N-{[2-(pyridin-2-yl)-1H-imidazol-4-yl]methyl}piperidin-4-amine], the IC50 worked out at 21.5 µM on E. coli Topoisomerase IV and 20.8 µM against S. aureus DNA gyrase. The inhibition at 50 µM amounted to 60% on E. coli Topoisomerase IV, 65% on S. aureus DNA gyrase and 50% at E. coli DNA gyrase.

Usually IC50 stands for the concentration at which inhibition is half-maximal. For orientation: inhibition means the drop in the measured response relative to a control, in per cent.
